According to paper PMC3006138, “Fexinidazole – A New Oral Nitroimidazole Drug Candidate Entering Clinical Development for the Treatment of Sleeping Sickness” (PLoS Neglected Tropical Diseases, 2010):
Like-named read-outs stand apart in the source and are kept apart here.

Columns and labels:
mouse hepatocytes = assay: Hepatocyte intrinsic clearance and metabolite profile; type: in vitro ADME; details: fexinidazole 10 µM
Method: (§1) Fexinidazole was incubated with cryopreserved hepatocytes from male CD-1 mice, male Sprague Dawley rats, male beagle dogs, male cynomolgus monkeys, and from pooled white or African-American human donor samples (purchased commercially), at concentrations of 1 µM and 10 µM. […] The incubated samples were analyzed by LC-MS after extraction into acetonitrile.
(§2) A quality control analysis of fexinidazole was performed via 1H-NMR in DMSO and LC- […]
(§3) provided by the Swiss Tropical Institute (Basel, Switzerland).
(§4) Reagents and solvents were of analytical grade and obtained from Sigma-Aldrich (St. Louis, […]
(§5) Cryopreserved hepatocytes from the male CD1 mouse, lot CSI; male Sprague Dawley rat, lot LPL; male beagle dog, lot BWX; male cynomolgus monkey, lot EHH; and pooled human samples, lot MJI, were purchased from In Vitro Technologies Inc (Baltimore, Maryland, […]
(§6) 5.4. In vitro Incubations
(§7) On the day of the experiment a 10 mM stock solution of fexinidazole in DMSO was prepared and, within 3 hours, aliquots of this freshly prepared solution, after suitable dilution, were added to the incubation matrix, to reach fexinidazole final concentrations of 1 and 10 µM. The final percentage of DMSO was 0.01% in the incubation samples for the […]
(§8) On the day of experiment, the cryopreserved hepatocytes were thawed following the detailed instructions provided by the supplier.
(§9) The number of viable cells was determined using a Trypan Blue exclusion method.
(§10) 5.4.1. Intrinsic Clearance Study […]
(§11) µM with mouse, rat, dog, monkey and human hepatocytes (300000 cells/mL for the mouse and 1 million cells/mL for the other species) in a final incubation volume of 0.75 mL […]
(§12) Incubations were performed in duplicate in a 48-well plate under shaking. Sampling was performed using an automatic liquid handling system (Multiprobe II EX, Packard). At 0, 1, 5, 10, 15, 20, 30, 60 and 120 minutes, 50 µL aliquots of the incubates were taken, then 80 µL of ice-cold acetonitrile and 20 µL of 1 µM warfarin in acetonitrile (internal standard) were added, and samples centrifuged at 2000 rpm for 20 min. The supernatant was analyzed by LC-MS/MS. […]
(§13) the medium alone at t = 0 and 120 minutes.
(§14) For the determination of phase I and phase II activity of hepatocytes, 7-ethoxycoumarin (7-EC) 1 µM, and 7-hydroxycoumarin (7-HC) 30 µM were used as positive controls and incubated under the same conditions as fexinidazole. Aliquots of incubates were taken at 0, 10, 20, 30, 60 and 120 minutes and processed as fexinidazole samples.
(§15) 5.4.2. Metabolite Profile Study
(§16) For metabolite profiling, fexinidazole was incubated at a concentration of 10 µM with mouse, rat, dog, monkey and human hepatocytes (300000 cells/mL for the mouse and 1 million cells/mL for the other species) in a final incubation volume of 2 mL Leibovitz L-15 […]
(§17) Aliquots of the incubation samples were taken at t = 0, 30 and 120 minutes; the metabolism was stopped by the addition of an equal volume of cold acetonitrile and the samples centrifuged at 1500 rpm for 20 min. The supernatant was stored at -20°C until analysis. Control incubations were performed with the compound in the medium alone […]
(§18) 5.5. Analysis of Samples for Intrinsic Clearance Determination
(§19) The analysis of the samples for intrinsic clearance determination was performed by an LC-MS/MS method, using the following conditions:
(§20) HPLC Equipment and Conditions
(§21) HPLC system Agilent 1100 binary pump (Agilent, Palo Alto, USA)
(§22) Autosampler CTC Pal (Alfatech, San Jose, USA)
(§23) Analytical column Guard Column SB-C8 4.6 x 12.5 mm, 5 µm (Zorbax)
(§24) Column temperature ambient
(§25) Mobile phase A 10 mM ammonium formate pH 4.0: acetonitrile (95:5, v:v)
(§26) Mobile phase B 10 mM ammonium formate pH 4.0: acetonitrile (5:95, v:v) […]
(§27) Gradient conditions Step Total time (min) flow (µL/min) %A % B […]
(§28) MS Equipment and Conditions
(§29) Mass spectrometer API 4000 Triple Quadrupole (MDS-Sciex, Toronto, […]
(§30) Source Turbo Ion Spray (TIS)
(§31) Ion mode Positive for fexinidazole and 7-EC.
(§32) Negative for 7-HC, 7-HC sulphate and 7-HC glucuronide.

[1] = system: cytochrome P450 (CYP450) enzymes; assay: In vitro CYP-450 metabolism (whole panel); type: in vitro ADME, human; details: 1.0 µM, up to 60 min
Method: Duplicate samples of human recombinant CYP enzyme isotypes CYP1A2, CYP2B6, CYP2C8, CYP2C9, CYP2C19, CYP2D6, CYP3A4, CYP3A5 (10–30 pmol/mL) with NADPH as cofactor were incubated with fexinidazole, fexinidazole sulfoxide, or fexinidazole sulfone at a concentration of 1.0 µM for up to 60 min (pH 7.4, 37°C). Detection of the compounds was via HPLC-MS.

dog hepatocytes = assay: Hepatocyte intrinsic clearance and metabolite profile; type: in vitro ADME; details: fexinidazole 10 µM
Method: as §1, §2, §3, §4, §5, §6, §7, §8, §9, §10, §11, §12, §13, §14, §15, §16, §17, §18, §19, §20, §21, §22, §23, §24, §25, §26, §27, §28, §29, §30, §31, §32

[2] = system: human hepatocytes (pooled); assay: as above; type: in vitro ADME; details: for % of total drug related material: fexinidazole 10 µM
Method: as §1, §2, §3, §4, §5, §6, §7, §8, §9, §10, §11, §12, §13, §14, §15, §16, §17, §18, §19, §20, §21, §22, §23, §24, §25, §26, §27, §28, §29, §30, §31, §32

human lymphocytes = assay: In vitro micronucleus test; type: cell-based
Method: Duplicate human lymphocyte cultures were prepared from the pooled blood of two donors in two independent experiments. […] The test concentrations for micronucleus analysis were selected by evaluating the effect of fexinidazole on the replication index (RI). In each experiment, micronuclei were analysed at three concentrations. Similar tests were carried out on fexinidazole sulfone. As per the Ames test, this was carried out in the absence of rat liver S9 only.

[3] = Dog 28-day toxicokinetics; type: in vivo; details: both sexes, beagle, plasma, po
Method: In the dog repeated-dose toxicokinetic study, fexinidazole was given orally by gavage once a day for 28 days to five (control and high dose) or three (low and mid dose) beagle dogs/sex/dose at the doses of 0 (control group), 50, 200, or 800 mg/kg/day. The control group received the vehicle alone (same as above). Systemic exposure to fexinidazole and of its sulfoxide and sulfone metabolites was evaluated on days 1, 14 and 28 in the same animals used for the toxicological study. Samples were taken at predose, and 30 min, 1, 2, 4, 8 and 24 h after dosing on days 1, 14, and 28, and in addition at 48 and 72 h after treatment on day 28.

[4] = 50 mg/kg/day, 50 mg/kg/day po, day 1
[5] = 50 mg/kg/day, 50 mg/kg/day po, day 1, read-out: AUC0-t(last)
[6] = 50 mg/kg/day, 50 mg/kg/day po, day 14
[7] = 50 mg/kg/day, 50 mg/kg/day po, day 14, read-out: AUC0-t(last)
[8] = 200 mg/kg/day, 200 mg/kg/day po, day 1
[9] = 200 mg/kg/day, 200 mg/kg/day po, day 1, read-out: AUC0-t(last)
[10] = 200 mg/kg/day, 200 mg/kg/day po, day 14
[11] = 200 mg/kg/day, 200 mg/kg/day po, day 14, read-out: AUC0-t(last)
[12] = 800 mg/kg/day, 800 mg/kg/day po, day 1
[13] = 800 mg/kg/day, 800 mg/kg/day po, day 1, read-out: AUC0-t(last)
[14] = 800 mg/kg/day, 800 mg/kg/day po, day 14
[15] = 800 mg/kg/day, 800 mg/kg/day po, day 14, read-out: AUC0-t(last)

Compound | % of total drug related material ([2]; 30 min) [%] | % of total drug related material ([2]; 120 min) [%] | Cmax [3, 4] [ng/mL] | Tmax [3, 4] [h] | AUC(0-t) [3, 5] [ng·h/mL] | Cmax [3, 6] [ng/mL] | Tmax [3, 6] [h] | AUC(0-t) [3, 7] [ng·h/mL] | Cmax [3, 8] [ng/mL] | Tmax [3, 8] [h] | AUC(0-t) [3, 9] [ng·h/mL] | Cmax [3, 10] [ng/mL] | Tmax [3, 10] [h] | AUC(0-t) [3, 11] [ng·h/mL] | Cmax [3, 12] [ng/mL] | Tmax [3, 12] [h] | AUC(0-t) [3, 13] [ng·h/mL] | Cmax [3, 14] [ng/mL] | Tmax [3, 14] [h] | AUC(0-t) [3, 15] [ng·h/mL] | other results
Cn1c([N+](=O)[O-])cnc1COc1ccc(S(C)(=O)=O)cc1 [Fexinidazole sulfone] | 2 | 4 | 8580 ± 2150 | 7.33 ± 1.63 | 146000 ± 38300 | 7780 ± 2890 | 5.33 ± 2.07 | 126000 ± 59100 | 17600 ± 2460 | 12.7 ± 8.91 | 348000 ± 63900 | 21800 ± 3860 | 5.33 ± 2.07 | 384000 ± 49900 | 36100 ± 7940 | 14.4 ± 8.26 | 660000 ± 164000 | 36600 ± 6240 | 6.8 ± 1.93 | 653000 ± 118000 | % of total drug related material (mouse hepatocytes; 30 min): 8%; % of total drug related material (mouse hepatocytes; 120 min): 20%; metabolism by the enzymes tested [1]: none of the enzymes tested metabolised; % of total drug related material (dog hepatocytes; 30 min): 4%; % of total drug related material (dog hepatocytes; 120 min): 15%; in vitro micronucleus test result (human lymphocytes): negative
Cn1c([N+](=O)[O-])cnc1COc1ccc([S+](C)[O-])cc1 (stereo not shown) [Fexinidazole sulfoxide] | 96 | 95 | 3760 ± 970 | 1.17 ± 0.41 | 19600 ± 5680 | 2990 ± 980 | 1.33 ± 0.52 | 13600 ± 5990 | 8120 ± 2660 | 1.25 ± 0.61 | 51400 ± 14100 | 8990 ± 2830 | 2 | 56700 ± 16600 | 14500 ± 3950 | 1.55 ± 0.6 | 112000 ± 31800 | 13600 ± 4090 | 1.6 ± 0.97 | 129000 ± 39800 | % of total drug related material (mouse hepatocytes; 30 min): 92%; % of total drug related material (mouse hepatocytes; 120 min): 80%; % of total drug related material (mouse hepatocytes; t=0): 58%; metabolism by the enzymes tested [1]: none of the enzymes tested metabolised; % of total drug related material (dog hepatocytes; 30 min): 94%; % of total drug related material (dog hepatocytes; 120 min): 84%; % of total drug related material (dog hepatocytes; t=0): 50%; % of total drug related material ([2]; t=0): 17%
CSc1ccc(OCc2ncc([N+](=O)[O-])n2C)cc1 [Fexinidazole, 1-methyl-2-((p-(methylthio)phenoxy)methyl)-5-nitroimidazole] | 2 | < 1 | 40 ± 10 | 0.75 ± 0.61 | 190 ± 130 | 30 ± 10 | 1.08 ± 0.74 | 150 ± 130 | 70 ± 30 | 1 ± 0.55 | 440 ± 90 | 80 ± 10 | 1.5 ± 0.77 | 450 ± 140 | 140 ± 70 | 1.15 ± 0.47 | 840 ± 320 | 140 ± 50 | 1.2 ± 0.42 | 1050 ± 300 | % of total drug related material (mouse hepatocytes; t=0): 42%; % of total drug related material (dog hepatocytes; t=0): 50%; t1/2 ([2]; 1 µM): 13.4 min; % of total drug related material ([2]; t=0): 83%; in vitro micronucleus test result (human lymphocytes): did not induce the formation of micronuclei; Micronucleated binucleate cells (human lymphocytes; 20 μg/mL, 24-h PHA, +S9): 0.50%; Micronucleated binucleate cells (human lymphocytes; 20 μg/mL, 24-h PHA, −S9): 0.50%; Micronucleated binucleate cells (human lymphocytes; 20 μg/mL, 48-h PHA, +S9): 0.60%; Micronucleated binucleate cells (human lymphocytes; 20 μg/mL, 48-h PHA, −S9): 1.1%; Micronucleated binucleate cells (human lymphocytes; 40 μg/mL, 24-h PHA, +S9): 0.55%; Micronucleated binucleate cells (human lymphocytes; 40 μg/mL, 24-h PHA, −S9): 0.40%; Micronucleated binucleate cells (human lymphocytes; 40 μg/mL, 48-h PHA, +S9): 1.20%; Micronucleated binucleate cells (human lymphocytes; 40 μg/mL, 48-h PHA, −S9): 0.60%; Micronucleated binucleate cells (human lymphocytes; 80 μg/mL, 24-h PHA, +S9): 0.75%; Micronucleated binucleate cells (human lymphocytes; 80 μg/mL, 24-h PHA, −S9): 0.70%; Micronucleated binucleate cells (human lymphocytes; 80 μg/mL, 48-h PHA, +S9): 0.40%; Micronucleated binucleate cells (human lymphocytes; 80 μg/mL, 48-h PHA, −S9): 0.90%
